In patent US10800789B2, “Antiviral compounds” (Gilead Pharmasset LLC, priority 2012, dated 2020):
Like-named read-outs stand apart in the source and are kept apart here.

Columns and labels:
[1] = tested on: stable HCV 2a JFH-1 Rluc replicon cells (L31 present in NS5A); experiment: Renilla luciferase HCV replicon reporter assay, genotype 2a JFH-1; format: cell-based; conditions: Hepatitis C virus
Method in brief: (§1)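 72 h compound exposure (3-fold dilutions from 10 mM DMSO stocks) of replicon cells: stable dicistronic RLuc 1a H77, 1b Con1, 2a JFH-1 (NS5A L31); J6-NS5A chimera in JFH-1 (M31), transient in Huh-Lunet or stable. Renilla luciferase read-out, non-linear regression → EC50. DMSO negative control.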

[2] = tested on: stable HCV 1b RLuc replicon cells (dicistronic genotype 1b Con1 replicon); experiment: Renilla luciferase HCV replicon reporter assay, genotype 1b; format: cell-based; conditions: Hepatitis C virus, 72 h, stable 1b Con1 RLuc replicon cells, 72 hours; read-out: 1b
Method in brief: as §1

[3] = tested on: Q30R in genotype 1a NS5A (1a Pi-Rluc replicon, Huh-7-derived cured-51 cells); experiment: Replicon assay against resistance mutant 1a Q30R; format: cell-based, HCV; conditions: Hepatitis C virus
Protocol: Antiviral potency (EC50) was determined using a Renilla luciferase (RLuc)-based HCV replicon reporter assay. To perform the assay for genotype 1 and 2a JFH-1, stable HCV 1a RLuc replicon cells (harboring a dicistronic genotype 1a H77 replicon that encodes a RLuc reporter), stable HCV 1b RLuc replicon cells (harboring a dicistronic genotype 1b Con1 replicon that encodes a RLuc reporter), or stable HCV 2a JFH-1 Rluc replicon cells (harboring a dicistronic genotype 2a JFH-1 replicon that encodes a RLuc reporter; with L31 present in NS5A) were dispensed into 384-well plates for EC50 assays. To perform the assay for genotype 2a (with M31 present in NS5A) or 2b, NS5A chimeric genotype 2a JFH-1 replicons that encodes a RLuc-Neo reporter and either genotype 2a J6 strain NS5A gene or genotype 2b MD2b-1 strain NS5A gene (both with M31 present) respectively, were either transiently transfected (t) into Huh-Lunet cells or were established as stably replicating replicon cells (s) is provided. Either cells were dispensed into 384-well plates for EC50 assays. To perform the assay for genotype 3 and 4, NS5A chimeric genotype 1b Con1 replicons that encodes a Pi-RLuc reporter and either genotype 3a S52 strain NS5A gene or genotype 4a ED43 strain NS5A gene respectively, were transiently transfected (t) into Huh-Lunet cells, which were subsequently dispensed into 384-well plates. Compounds were dissolved in DMSO at a concentration of 10 mM and diluted in DMSO either manually or using an automated pipeting instrument. Serially 3-fold diluted compounds were either manually mixed with cell culture media and added to the seeded cells or directly added to the cells using an automated instrument. DMSO was used as a negative (solvent; no inhibition) control, and the protease inhibitor ITMN-191 was included at a concentration>100×EC50 as a positive control. 72 hours later, cells were lysed and Renilla luciferase activity quantified as recommended by the manufacturer (Promega-Madison, Wis.). Non-linear regression was performed to calculate EC50 values.
To determine the antiviral potency (EC50) against resistance mutants, resistance mutations, including M28T, Q30R, Q30H, Q30E, L31M, Y93C, Y93H, and Y93N in genotype 1a NS5A, Y93H and L31V/Y93H in genotype 1b NS5A, and Y93H for in genotype 3a NS5A, were introduced individually into either 1a Pi-Rluc or 1b Pi-Rluc replicons by site directed mutagenesis. Replicon RNA of each resistant mutant was transiently transfected into Huh-7-derived cured-51 cells and antiviral potency was determined on these transfected cells as described above.

[4] = tested on: NS5A chimeric genotype 1b Con1 replicon with genotype 4a ED43 strain NS5A gene; experiment: Replicon assay, genotype 4a NS5A chimera; format: cell-based, HCV; conditions: Hepatitis C virus
[5] = tested on: NS5A chimeric genotype 1b Con1 replicon with genotype 3a S52 strain NS5A gene; experiment: Replicon assay, genotype 3a NS5A chimera; format: cell-based, HCV; conditions: Hepatitis C virus
[6] = tested on: NS5A chimeric genotype 2a JFH-1 replicon with genotype 2b MD2b-1 strain NS5A gene (M31 present); experiment: Replicon assay, genotype 2b NS5A chimera; format: cell-based, HCV; conditions: Hepatitis C virus
Method in brief: (§2)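 EC50 was fitted by non-linear regression to Renilla luciferase signal after 72 h of exposure to 3-fold serially diluted compound (10 mM DMSO stocks). Controls were DMSO (none) and ITMN-191 above 100×EC50 (full). Chimeric 2a replicons were used either stable or transiently transfected into Huh-Lunet cells.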

[7] = tested on: stable HCV 1a RLuc replicon cells (dicistronic genotype 1a H77 replicon); experiment: Renilla luciferase HCV replicon reporter assay, genotype 1a; format: cell-based; conditions: Hepatitis C virus, 72 h, stable 1a H77 RLuc replicon cells
Method in brief: as §1

[8] = tested on: NS5A chimeric genotype 2a JFH-1 replicon with genotype 2a J6 strain NS5A gene (M31 present); experiment: Replicon assay, genotype 2a J6 NS5A chimera; format: cell-based, HCV; conditions: Hepatitis C virus
Method in brief: as §2

[9] = read-out: 2a JFH (nM), genotype 2a JFH-1 replicon (L31 in NS5A), stable cells
[10] = read-out: 2a JFH, stable 2a JFH-1 Rluc replicon cells, L31 in NS5A, activity range
[11] = read-out: 4a (s) (nM), genotype 4a NS5A chimeric replicon, stable replicon cells (s)
[12] = read-out: 4a (s), (s), activity range
[13] = read-out: 3a (s) (nM), genotype 3a NS5A chimeric replicon, stable replicon cells (s)
[14] = read-out: 3a (s), (s), activity range
[15] = read-out: 3a (t) (nM), genotype 3a NS5A chimeric replicon, transiently transfected (t)
[16] = read-out: 3a (t), transiently transfected (t) into Huh-Lunet cells, activity range
[17] = 2BS, read-out: 2b (s), stably replicating replicon cells (s), activity range
[18] = read-out: 2b (s) (nM), genotype 2b MD2b-1 NS5A chimeric replicon (M31), stably replicating replicon cells (s)
[19] = read-out: 2a J6 (t) (nM), genotype 2a J6 NS5A chimeric replicon (M31), transiently transfected (t) into Huh-Lunet cells
[20] = read-out: 2a J6 (t), transiently transfected (t) into Huh-Lunet cells, activity range
[21] = read-out: 2b (t) (nM), genotype 2b MD2b-1 NS5A chimeric replicon (M31), transiently transfected (t)
[22] = read-out: 2b (t), transiently transfected (t) into Huh-Lunet cells, activity range

Structure (SMILES)	EC50 [1, 9] [nM]	EC50 [1, 10] [nM]	EC50 [2] [nM]	EC50 ([3]; read-out: 1a Q30R) [nM]	EC50 ([3]; read-out: 1a Q30R (nM)) [nM]	EC50 [4, 11] [nM]	EC50 [4, 12] [nM]	EC50 [5, 13] [nM]	EC50 [5, 14] [nM]	EC50 [5, 15] [nM]	EC50 [5, 16] [nM]	EC50 [6, 17] [nM]	EC50 [6, 18] [nM]	EC50 [7] [nM]	EC50 ([7]; activity range) [nM]	EC50 [8, 19] [nM]	EC50 [8, 20] [nM]	EC50 [6, 21] [nM]	EC50 [6, 22] [nM]
COC(=O)N[C@H](C(=O)N1[C@@H](C)CC[C@H]1c1nc(Cl)c(-c2ccc3c(c2)COc2cc4c(ccc5nc([C@@H]6CC[C@H](C)N6C(=O)[C@@H](NC(=O)OC)[C@@H](C)OC)[nH]c54)cc2-3)[nH]1)[C@@H](C)OC [GB, Methyl [(2S,3R)-1-{(2S,5S)-2-[9-(4-chloro-2-{(2S,5S)-1-[N-(methoxycarbonyl)-O-methyl-L-threonyl]-5-methylpyrrolidin-2-yl}-1H-imidazol-5-yl)-1,11-dihydroisochromeno[4′,3′:6,7]naphtho[1,2-d]imidazol-2-yl]-5-methylpyrrolidin-1-yl}-3-methoxy-1-oxobutan-2-yl]carbamate]	0.011	< 0.1	0.019	< 0.1	0.075	0.007	< 0.1	0.029	< 0.1	0.034	< 0.1	< 0.1	0.089	0.016	< 0.1	0.023	< 0.1		
COC(=O)N[C@H](C(=O)N1[C@@H](C)CC[C@H]1c1nc(C)c(-c2ccc3c(c2)COc2cc4c(ccc5nc([C@@H]6CC[C@H](C)N6C(=O)[C@@H](NC(=O)OC)[C@@H](C)OC)[nH]c54)cc2-3)[nH]1)[C@@H](C)OC [GD, Methyl [(2S,3R)-3-methoxy-1-{(2S,5S)-2-[9-(2-{(2S,5S)-1-[N-(methoxycarbonyl)-O-methyl-L-threonyl]-5-methylpyrrolidin-2-yl}-4-methyl-1H-imidazol-5-yl)-1,11-dihydroisochromeno[4′,3′:6,7]naphtho[1,2-d]imidazol-2-yl]-5-methylpyrrolidin-1-yl}-1-oxobutan-2-yl]carbamate]	0.035	< 0.1	0.027	0.1 to 0.999	0.105	0.018	< 0.1	0.07	< 0.1	0.042	< 0.1	< 0.1	0.09	0.019	< 0.1	0.04	< 0.1		
COC[C@H]1C[C@@H](c2ncc(-c3ccc4c(c3)c(=O)oc3cc5c(ccc6nc([C@@H]7CC[C@H](C)N7C(=O)[C@@H](NC(=O)OC)C(C)C)[nH]c65)cc34)[nH]2)N(C(=O)[C@H](NC(=O)OC)c2ccccc2)C1 [GK, methyl {(1R)-2-[(2S,4S)-2-(5-{2-[(2S,5S)-1-{(2S)-2-[(methoxycarbonyl)amino]-3-methylbutanoyl}-5-methylpyrrolidin-2-yl]-11-oxo-1,11-dihydroisochromeno[4′,3′:6,7]naphtho[1,2-d]imidazol-9-yl}-1H-imidazol-2-yl)-4-(methoxymethyl)pyrrolidin-1-yl]-2-oxo-1-phenylethyl}carbamate]	0.024	< 0.1	0.036	0.1 to 0.999	0.111	0.028	< 0.1	0.156	0.1 to 0.999			0.1 to 0.999	0.187	0.031	< 0.1	0.071	< 0.1	0.087	< 0.1
CC[C@H]1C[C@@H](c2nc3ccc4cc5c(cc4c3[nH]2)OCc2cc(-c3cnc([C@@H]4CC[C@H](C)N4C(=O)[C@@H](NC(=O)OC)C(C)C)[nH]3)ccc2-5)N(C(=O)[C@@H](NC(=O)OC)C2CCOCC2)C1 [GV]	0.008	< 0.1	0.027	< 0.1	0.061	0.016	< 0.1	0.042	< 0.1			0.1 to 0.999	0.112	0.018	< 0.1	0.012	< 0.1		
CC[C@H]1CC[C@@H](c2ncc(-c3ccc4c(c3)COc3cc5c(ccc6nc([C@@H]7CC[C@H](C)N7C(=O)[C@@H](NC(=O)OC)[C@@H](C)OC)[nH]c65)cc3-4)[nH]2)N1C(=O)[C@@H](NC(=O)OC)C1CCOCC1 [HY]	0.015	< 0.1	0.028	< 0.1	0.046	0.017	< 0.1	0.052	< 0.1	0.055	< 0.1	< 0.1	0.049	0.015	< 0.1	0.026	< 0.1	0.031	< 0.1
